Patent US8614327B2 (Vertex Pharmaceuticals Incorporated, priority 2004, dated 2013)

Molecular target: T1, ΔF508-CFTR (Homo sapiens, UniProt P13569, DEL508-508)
T1 construct: expressed in transfected cells
Assay: Membrane potential optical (FRET/VIPR) assay, identification of potentiator compounds
Type: cell-based
Conditions: Table 3, assay not given; for % Activity: relative efficacy
Summary of the method: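 Double-addition potentiator screen: compound delivered in gluconate-substituted Cl^--free medium, membrane potential followed via CC2-DMPE/DiSBAC2(3) FRET on VIPR. Cells were ΔF508-CFTR-expressing NIH3T3 mouse fibroblasts, held 2 h at 37° C. then 24 h at 27° C. before assay.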

T1 sequence (P13569 with tags, fused parts or gaps DEL508-508): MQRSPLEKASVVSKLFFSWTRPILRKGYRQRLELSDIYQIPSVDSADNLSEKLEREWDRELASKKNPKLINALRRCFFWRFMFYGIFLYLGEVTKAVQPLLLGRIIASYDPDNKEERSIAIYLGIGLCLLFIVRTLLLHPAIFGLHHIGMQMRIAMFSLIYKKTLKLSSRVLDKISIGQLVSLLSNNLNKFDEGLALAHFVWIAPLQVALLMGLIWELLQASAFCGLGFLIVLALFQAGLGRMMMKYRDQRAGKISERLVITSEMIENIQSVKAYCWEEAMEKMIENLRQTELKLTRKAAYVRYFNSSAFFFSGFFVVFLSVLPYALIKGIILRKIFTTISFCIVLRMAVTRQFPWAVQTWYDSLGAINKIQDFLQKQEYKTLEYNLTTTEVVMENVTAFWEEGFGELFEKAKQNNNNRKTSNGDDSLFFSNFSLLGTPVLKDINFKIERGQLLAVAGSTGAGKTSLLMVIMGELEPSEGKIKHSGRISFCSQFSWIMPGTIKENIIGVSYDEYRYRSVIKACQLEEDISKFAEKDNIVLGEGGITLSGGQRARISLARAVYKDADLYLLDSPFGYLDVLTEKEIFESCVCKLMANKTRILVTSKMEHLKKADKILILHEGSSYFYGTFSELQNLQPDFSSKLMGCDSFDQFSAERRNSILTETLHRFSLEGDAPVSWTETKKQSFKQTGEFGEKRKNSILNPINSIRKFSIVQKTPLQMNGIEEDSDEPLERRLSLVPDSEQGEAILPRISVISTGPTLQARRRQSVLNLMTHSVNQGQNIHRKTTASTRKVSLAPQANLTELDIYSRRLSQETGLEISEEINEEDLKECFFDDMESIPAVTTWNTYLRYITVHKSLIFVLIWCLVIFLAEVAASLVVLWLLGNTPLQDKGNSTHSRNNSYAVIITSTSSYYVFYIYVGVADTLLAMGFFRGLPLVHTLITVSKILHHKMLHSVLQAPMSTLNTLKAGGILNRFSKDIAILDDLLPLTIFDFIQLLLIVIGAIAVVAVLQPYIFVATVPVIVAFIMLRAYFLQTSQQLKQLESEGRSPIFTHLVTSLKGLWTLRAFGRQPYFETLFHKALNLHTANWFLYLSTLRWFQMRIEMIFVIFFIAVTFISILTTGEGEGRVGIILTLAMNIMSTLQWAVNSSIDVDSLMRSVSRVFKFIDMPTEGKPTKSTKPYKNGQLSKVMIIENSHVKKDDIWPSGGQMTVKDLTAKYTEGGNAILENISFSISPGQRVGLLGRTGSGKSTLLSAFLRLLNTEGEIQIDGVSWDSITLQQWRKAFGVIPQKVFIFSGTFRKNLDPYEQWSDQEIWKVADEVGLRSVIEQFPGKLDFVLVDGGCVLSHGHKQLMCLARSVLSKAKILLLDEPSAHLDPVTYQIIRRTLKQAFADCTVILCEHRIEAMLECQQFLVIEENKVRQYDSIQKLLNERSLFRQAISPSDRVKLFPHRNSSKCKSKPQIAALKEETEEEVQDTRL

EC50 | % Activity | SMILES
< 10 µM | ++ (between 25% to 100%) | O=C(Nc1ccc(N2CCCC2)cc1C(F)(F)F)c1c[nH]c2ccccc2c1=O [Compound 658, 4-oxo-N-[4-pyrrolidin-1-yl-2-(trifluoromethyl)phenyl]-1H-quinoline-3-carboxamide]
< 10 µM | ++ (between 25% to 100%) | CCc1cc(C#N)ccc1NC(=O)c1c[nH]c2ccccc2c1=O [Compound 451, N-(4-cyano-2-ethyl-phenyl)-4-oxo-1H-quinoline-3-carboxamide]
10 to 25 µM | ++ (between 25% to 100%) | O=C(Nc1ccc2[nH]ncc2c1)c1c[nH]c2ccccc2c1=O [Compound 217, N-(1H-indazol-5-yl)-4-oxo-1H-quinoline-3-carboxamide]
< 10 µM | ++ (between 25% to 100%) | CC(C)c1ccc(NC(=O)OC(C)(C)C)cc1NC(=O)c1c[nH]c2ccccc2c1=O [Compound 60, [4-isopropyl-3-[(4-oxo-1H-quinolin-3-yl)carbonylamino]phenyl]aminoformic acid tert-butyl ester]
< 10 µM | ++ (between 25% to 100%) | CN(C)[C@H]1CCN(c2ccc(NC(=O)c3c[nH]c4ccccc4c3=O)c(C(F)(F)F)c2)C1 [Compound 513, (S)-N-(4-(3-(dimethylamino)pyrrolidin-1-yl)-2-(trifluoromethyl)phenyl)-4-oxo-1,4-dihydroquinoline-3-carboxamide]
< 10 µM | ++ (between 25% to 100%) | Cc1ccc(NC(=O)c2c[nH]c3ccccc3c2=O)c(C)c1 [Compound 281, N-(2,4-dimethylphenyl)-4-oxo-1H-quinoline-3-carboxamide]

Continued, compound first:

SMILES | EC50 | % Activity
CC(C)(C)c1cc(C(C)(C)C)c(NC(=O)c2c[nH]c3c(Cl)cccc3c2=O)cc1O [Compound 663, 8-chloro-N-(5-hydroxy-2,4-ditert-butyl-phenyl)-4-oxo-1H-quinoline-3-carboxamide] | < 10 µM | ++ (between 25% to 100%)
COc1ccc2[nH]cc(C(=O)Nc3cc4[nH]ccc4cc3C(C)(C)C)c(=O)c2c1 [Compound 533, 6-methoxy-4-oxo-N-(5-tert-butyl-1H-indol-6-yl)-1H-quinoline-3-carboxamide] | < 10 µM | +++ (>100%)
Cc1cccc2[nH]cc(C(=O)Nc3cc4[nH]ccc4cc3C(C)(C)C)c(=O)c12 [Compound 565, 5-methyl-4-oxo-N-(5-tert-butyl-1H-indol-6-yl)-1H-quinoline-3-carboxamide] | < 10 µM | ++ (between 25% to 100%)
CSc1ccccc1-c1ccccc1NC(=O)c1c[nH]c2ccccc2c1=O [Compound 279, N-[2-(2-methylsulfanylphenyl)phenyl]-4-oxo-1H-quinoline-3-carboxamide] | – | ++ (between 25% to 100%)
O=C(Nc1cccc2c1Cc1ccccc1-2)c1c[nH]c2ccccc2c1=O [Compound 18, N-(9H-fluoren-1-yl)-4-oxo-1H-quinoline-3-carboxamide] | < 10 µM | ++ (between 25% to 100%)
Cc1ccc2c(=O)c(C(=O)Nc3cc(O)c(C4(C)CCCCC4)cc3F)c[nH]c2c1 [Compound 499, N-[2-fluoro-5-hydroxy-4-(1-methylcyclohexyl)-phenyl]-7-methyl-4-oxo-1H-quinoline-3-carboxamide] | < 10 µM | ++ (between 25% to 100%)
O=C(Nc1ccc2cn[nH]c2c1)c1c[nH]c2ccccc2c1=O [Compound 284, N-(1H-indazol-6-yl)-4-oxo-1H-quinoline-3-carboxamide] | 10 to 25 µM | ++ (between 25% to 100%)
O=C(Nc1ccc2cc[nH]c2c1)c1c[nH]c2ccccc2c1=O [Compound 33, N-(1H-indol-6-yl)-4-oxo-1H-quinoline-3-carboxamide] | < 10 µM | ++ (between 25% to 100%)
